# From the supplement of paper PMC3974653
# Structures can show the parent of a compound that is named as a salt.
# System: MTT (mouse pheochromocytoma)
# Test: IC50 of cell viability (ATP content)
# Conditions: (24 or 48 h)
# In short: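 MTT mouse pheochromocytoma cells, cultured overnight at 37°C, 5% CO2 in DMEM with 5% FBS and 1% horse serum, were exposed in white 1536-well plates to library compounds in DMSO at final 0.5 nM to 46 µM (8 concentrations) for 24 or 48 hrs. CellTiter-Glo luminescence was normalised to positive-control (100%) and DMSO (0%) wells. A four-parameter logistic fit gave the IC50.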
row,Compound,IC50 of cell viability [µM]
1,COC(=O)[C@H]1[C@H]2C[C@H]3c4[nH]c5ccccc5c4CCN3C[C@H]2CC[C@@H]1O [RAUWOLSCINE],> 46
2,OC(=O)C(CC/1=C/C(=O)NC2=CC=CC=C12)NC(=O)C3=CC=C(Cl)C=C3 (stereo not given) [REBAMIPIDE],> 46
3,COc1ccc([S+](=O)([O-])N2c3ccc(Cl)cc3[C@](O)(c3ccccc3Cl)[C@@H]2C(=O)N2CCC[C@H]2C(N)=O)cc1OC [RELCOVAPTANUM],> 46
4,CCN1CCC[C@H]1CNC(=O)c1c(OC)ccc(Br)c1OC [REMOXIPRIDE],> 46
5,CC(C)Cc1ccc([C@@H](C)C(=O)NS(C)(=O)=O)cc1.NCCCC[C@H](N)C(=O)O [REPARIXIN],> 46
6,CC(=O)Oc1cccc(O)c1 [RESORCINOL MONOACETATE],> 46
7,NC(=O)c1ncn(C2OC(CO)C(O)C2O)n1 (stereo not given) [RIBAVIRIN],> 46
8,COC1/C=C/O[C@@]2(C)Oc3c(C)c(O)c4c(O)c(c(C=NN5CCN(C)CC5)c(O)c4c3C2=O)NC(=O)C(C)=C/C=C/C(C)C(O)[C@@H](C)C(O)C(C)[C@H](OC(C)=O)C1C (stereo not given in full) [RIFAMPIN],> 46
9,CO[C@H]1/C=C/O[C@@]2(C)Oc3c(C)c(O)c4c(O)c(c(/C=N\N5CCN(C6CCCC6)CC5)c(O)c4c3C2=O)NC(=O)C(C)=C/C=C/[C@H](C)[C@H](O)[C@@H](C)[C@@H](O)[C@@H](C)[C@H](OC(C)=O)[C@@H]1C [RIFAPENTINE],> 46
10,C1C\N=C(\NC(C2CC2)C3CC3)O1 [RILMENIDINE],> 46
11,CC/1=C(\CCN2CCC(CC2)C3=NOC4=C3C=CC(=C4)F)C(=O)N/5CCCCC5=N1 [RISPERIDONE],> 46
12,CCN(C)C(=O)Oc1cccc([C@H](C)N(C)C)c1 [RIVASTIGMINE TARTRATE],> 46
13,CN(C)CCc1c[nH]c2ccc(Cn3cncn3)cc12 [RIZATRIPTAN],> 46
14,N=C(N/N=C/c1ccc(Cl)cc1)N/N=C/c1ccc(Cl)cc1 [ROBENIDINE HYDROCHLORIDE],> 46
15,C=CC[N+]1([C@H]2C[C@H]3[C@@H]4CC[C@H]5C[C@H](O)[C@@H](N6CCOCC6)C[C@]5(C)[C@H]4CC[C@]3(C)[C@H]2OC(C)=O)CCCC1 [ROCURONIUM BROMIDE],> 46
16,C[S+]([O-])(=O)C1=CC=C(C=C1)C/2=C(/C(=O)OC2)C3=CC=CC=C3 [ROFECOXIB],> 46
17,O=C1CC[C@H](C(=O)N[C@@H]2C[C@H]2c2ccccc2)N1 [ROLICYPRINUM],> 46
18,Cn1c([N+](=O)[O-])cnc1COC(N)=O [RONIDAZOLE],> 46
19,CCCN(CCC)CCc1cccc2c1CC(=O)N2 [ROPINROLE],> 46
20,CCCN1CCCC[C@H]1C(=O)Nc1c(C)cccc1C [ROPIVACAINE HYDROCHLORIDE MONOHYDRATE],> 46

row,Compound,IC50 of cell viability [µM]
1,CCC1OC(=O)C[C@@H](O)[C@H](C)[C@@H](OC2OC(C)CC(N(C)C)C2O)[C@@H](CC=O)C[C@@H](C)C(=O)/C=C/[C@]2(C)OC2C1C (stereo not given in full) [ROSAMICIN],> 46
2,CN(CCOc1ccc(CC2SC(=O)NC2=O)cc1)c1ccccn1 (stereo not given) [ROSIGLITAZONE],> 46
3,CC(C)c1nc(N(C)[S+](C)(=O)[O-])nc(-c2ccc(F)cc2)c1/C=C/C(O)CC(O)CC(=O)O (stereo not given) [ROSUVASTATIN],> 46
4,CCCN(CCc1cccs1)[C@H]1CCc2c(O)cccc2C1 [ROTIGOTINE],> 46
5,CC(=O)OCC(=O)NCCCOc1cccc(CN2CCCCC2)c1 [ROXATIDINE ACETATE HYDROCHLORIDE],> 46
6,NC(=O)c1cn(Cc2c(F)cccc2F)nn1 [RUFINAMIDE],> 46
7,CN1CCN(CC1)C2=C(F)C=C3C(=O)\C(=C/N4CCSC2=C34)C(O)=O [RUFLOXACINUM],> 46
8,CC(=O)SC[C@@H](Cc1ccccc1)C(=O)NCC(=O)OCc1ccccc1 [Racecadotril],> 46
9,O=C(Nc1ccc(Oc2ccc(Cl)cc2)c(Cl)c1)c1cc(I)cc(I)c1O [Rafoxanide],> 46
10,O=C(c1ccc(OCCN2CCCCC2)cc1)c1c(-c2ccc(O)cc2)sc2cc(O)ccc12 [Raloxifene hydrochloride],> 46
11,CN\1C(=O)C(=C(\N=C1C(C)(C)NC(=O)C2=NN=C(C)O2)C(=O)NCC3=CC=C(F)C=C3)/O [Raltegravir],> 46
12,CN(CC1=CC2=C(N\C(=N/C2=O)C)C=C1)C3=CC=C(S3)C(=O)N[C@@H](CCC(O)=O)C(O)=O [Raltitrexed],> 46
13,CCOC(=O)[C@H](CCc1ccccc1)N[C@@H](C)C(=O)N1[C@@H](C(=O)O)C[C@H]2CCC[C@@H]21 [Ramipril],> 46
14,CCOc1ccccc1OC(c1ccccc1)C1CNCCO1 (stereo not given) [Reboxetine mesylate],> 46
15,CC(Cc1ccccc1)(NC(=O)CN)c1ccccc1 (stereo not given) [Remacemide hydrochloride],> 46
16,CCOc1cc(CC(=O)N[C@@H](CC(C)C)c2ccccc2N2CCCCC2)ccc1C(=O)O [Repaglinide],> 46
17,COC(=O)[C@@H]1[C@H]2C[C@H]3c4[nH]c5cc(OC)ccc5c4CCN3C[C@@H]2C[C@@H](OC(=O)/C=C\c2cc(OC)c(OC)c(OC)c2)[C@@H]1OC [Rescinnamin],> 46
18,COC(=O)[C@H]1[C@H]2C[C@@H]3c4[nH]c5cc(OC)ccc5c4CCN3C[C@H]2C[C@@H](OC(=O)c2cc(OC)c(OC)c(OC)c2)[C@@H]1OC [Reserpine],> 46
19,Oc1cccc(O)c1 [Resorcinol],> 46
20,Oc1ccc(/C=C\c2cc(O)cc(O)c2)cc1 [Resveratrol],> 46

row,Compound,IC50 of cell viability [µM]
1,CC1=C(/C=C/C(C)=C/C=C/C(C)=C/CO)C(C)(C)CCC1 [Retinol],> 46
2,CC(=O)OC/C=C(C)/C=C/C=C(C)/C=C/C1=C(C)CCCC1(C)C [Retinyl acetate],> 46
3,CCCCCCCCCCCCCCCC(=O)OC/C=C(C)/C=C/C=C(C)/C=C/C1=C(C)CCCC1(C)C [Retinyl palmitate],> 46
4,CCCCCCC(O)C/C=C\CCCCCCCC(=O)O (stereo not given) [Ricinoleic acid],> 46
5,CO[C@H]1/C=C/O[C@@]2(C)Oc3c(C)c(O)c4c(c3C2=O)C2=NC3(CCN(CC(C)C)CC3)NC2=C(NC(=O)/C(C)=C\C=C\[C@H](C)[C@H](O)[C@@H](C)[C@@H](O)[C@@H](C)[C@H](OC(C)=O)[C@@H]1C)C4=O [Rifabutin],> 46
6,CC(N)C12CC3CC(CC(C3)C1)C2 (stereo not given) [Rimantadine hydrochloride],> 46
7,CCC(=O)[C@@]1(C)[C@H](C)C[C@@H]2[C@@H]3CC\C4=C\C(=O)\C=C/[C@@]4(C)[C@H]3[C@H](O)C[C@@]12C [Rimexolone],> 46
8,CCCCCOc1ccc(C2SC(=O)NC2=O)cc1OCC (stereo not given) [Risarestat],> 46
9,CCCOC(=O)c1ccc(N)cc1 [Risocaine],> 46
10,CC/1=C(\CCN2CCC(CC2)=C(C3=CC=C(F)C=C3)C4=CC=C(F)C=C4)C(=O)N/5\C=C/SC5=N1 [Ritanserin],> 46
11,C[C@H](NCCc1ccc(O)cc1)[C@@H](O)c1ccc(O)cc1 [Ritodrine hydrochloride],> 46
12,CC(C)c1nc(CN(C)C(=O)NC(C(=O)NC(Cc2ccccc2)CC(O)C(Cc2ccccc2)NC(=O)OCc2cncs2)C(C)C)cs1 (stereo not given) [Ritonavir],> 46
13,CC(C)c1nc(CN(C)C(=O)N[C@H](C(=O)N[C@@H](Cc2ccccc2)C[C@H](O)[C@H](Cc2ccccc2)NC(=O)OCc2cncs2)C(C)C)cs1 [Ritonavir],> 46
14,Cc1cccc(C)c1N(CCCc1cccnc1)C(=O)[C@@H](C)N [Ro 22-9194],> 46
15,c1ccc(C2(N3CCCC3)CCCCC2)cc1 [Rolicyclidine],> 46
16,COc1ccc([C@@H]2CNC(=O)C2)cc1OC1CCCC1 [Rolipram],> 46
17,CN(C)[C@@H]\1[C@@H]2C[C@H]3\C(=C(\O)[C@@]2(O)C(=O)\C(=C1O)C(=O)NCN4CCCC4)C(=O)C5=C(C=CC=C5O)[C@@]3(C)O [Rolitetracycline],> 46
18,Cc1nc(-c2ccc(Cl)cc2)oc1COC(C)(C)C(=O)O [Romazarit],> 46
19,CC(=O)O[C@H](C)OC(=O)[C@@H](C)c1ccc(-c2ccccc2)c(F)c1 [Ropiopn],> 46
20,CC[C@H]1OC(=O)C[C@@H](O)[C@H](C)[C@@H](O[C@@H]2O[C@H](C)C[C@H](N(C)C)[C@@H]2O)[C@@H](CC=O)C[C@@H](C)C(=O)/C=C\[C@]2(C)O[C@H]2[C@@H]1C [Rosaramicin],> 46
